Experiments:
Assay type in all cases: cell-based, human
[1] = tested on: hPSC-NSC derived DA neurons; test: FACS analysis of derived DA neurons stained for TH; conditions: after 30 days of differentiation with guggulsterone
Method: To obtain DA neurons, hPSC-NSC were first primed into DA precursors with 100 ng/mL FGF8 and 2 μM Purmorphamine for 7 days and then used to screen for small molecules that induce terminal dopaminergic differentiation (FIG. 6A). The DA precursors were plated at 2000 cells/well of a 96-well plate and treated with a small molecule library (Tocris 1120 biologically active compounds) at 2.5 μM for two weeks (FIG. 6A). Dopaminergic differentiation was assessed by neurite outgrowth and ELISA analysis for dopamine release (FIG. 6A). From this screen, guggulsterone (GS), a naturally occurring steroid, was identified among the best inducers of dopaminergic differentiation (FIG. 6A). After 30 days of differentiation, GS-treated neurons appeared mature with elaborate neurite extensions. […] Spontaneous action potentials were recorded in whole cultures of GS-treated neurons using a microelectrode array (MEA) system (FIG. 6J). […]
For flow cytometry analysis, 1 million cells per sample were harvested with Accutase, washed with PBS, and fixed with 4% paraformaldehyde for 30 min at room temperature. […] The samples were run on a Becton Dickinison FACSCalibur™ 4-color flow cytometer and the data was analyzed with CellQuest Pro™ software (v6.0). […]

[2] = tested on: hPSC-derived DA neurons; test: Whole cell patch clamp electrophysiology of GS-treated neurons; conditions: current clamp, after 90 days of GS treatment
Method: Whole cell patch clamp electrophysiology methods. For electrophysiological recordings, the cells were transferred to a recording chamber mounted on an inverted Olympus microscope. During the recordings the temperature was maintained at 31-32° C., and the cells perfused at constant flow of 1 ml/min. with 150 mM NaCl, 4 mM KCl, 1.8 mM CaCl2, 1 mM MgCl2, 10 mM HEPES, 10 mM Glucose at pH 7.30 and 315 mOsm. Whole-cell recordings were obtained using borosilicate electrodes with tip resistance of 2-3 MΩ, filled with 130 mM K-Gluconate, 5 mM NaCl, 5 mM KCl, 10 mM HEPES, 20 mM Sucrose, 0.3 mM EGTA, 3 mM MgATP at pH 7.30 and 290 mOsm. Data were acquired using an HEKA EPC-10 digitizer/amplifier. Once whole-cell access was achieved the resting membrane potential was immediately recorded; the cells were then allowed to equilibrate for 3-5 min. From a resting membrane potential of −70 mV, the cells were then depolarized in current-clamp mode with 200 ms current injections, delivered at 0.2 Hz., and with increasing amplitude from 50 pA to up to 1000 pA to induce action potentials. The presence of inward or outward currents was determined by applying a voltage ramp. Cells with unstable recording configuration or for which the series resistance became larger than 15MΩ were excluded from the study. Twenty different cells were recorded and action potentials were obtained from 7 patch-clamped cells.

[3] = tested on: hPSC-derived DA neurons; test: Microelectrode array (MEA) recordings of GS-treated neurons; conditions: day 95 of differentiation, 2.5 μM guggulsterone
Method: Extracellular voltage recordings from cultured hPSC-derived DA neurons were made on day 95 of differentiation in NB medium [NeuroBasal medium, 1× GlutaMAX, 1× N2/B27 Supplement (Invitrogen)] supplemented with 2.5 μM guggulsterone at 37° C. using a Muse microelectrode array (MEA) system (Axion Biosystems). The surface of the MEA dishes contained an 8×8 grid (64 electrodes total) of 30 μm diameter round extracellular electrodes composed of nanoporous platinum, with 200 μm inter-polar spacing.
MEA dishes were sterilized by rinsing 3 times in sterile deionized water, once in 70% ethanol and once in 100% ethanol. Dishes were then capped and inverted in a covered petri dish, and baked at 50° C. for 4-5 hr. A polyethyleneimine (PEI) base coating was deposited by adding […] of filtered (0.22 μm filter) 0.1% PEI in sodium borate buffer (15 mM; pH 8.4) to each dish and incubating at room temperature for 1 hr. Immediately following aspiration of the PEI solution, dishes were washed 4× with 1 ml deionized water, and air-dried overnight in a tissue culture hood. […]
Voltage data were sampled simultaneously on all electrodes at 12.5 kHz with a hardware filter bandwidth of 200-5000 Hz, and saved to computer with AxIS software (Axion Biosystems). […] For spike raster plots and inter-spike interval histograms, time-stamps of detected spikes were exported to Neuroexplorer (NEX Technologies). […]

In the case of C/C=C1\C(=O)C[C@H]2[C@@H]3CCC4=CC(=O)CC[C@]4(C)[C@H]3CC[C@]12C [Guggulsterone], the “cells gated TH positive (FACS)” value [1] is reported as “more than 97%”, the “patch-clamped cells in which action potentials were found” value [2] is reported as 7 out of 20 and the “fraction of the 64 total MEA electrodes showing moderate activity (>5 spikes/min)” value [3] is reported as “Approximately one third”.

Reference: patent US9926529B2, “Derivation of neural stem cells and dopaminergic neurons from human pluripotent stem cells” (International Stem Cell Corporation, priority 2012, dated 2018)
